Measurements: patent US20190274974A1, “Treatment of Pain Associated with Trigeminal Neuralgia” (priority 2011, published 2019)
“Also recorded” adds a separate entry of the source.

Tests used:
CCI-SN rats [1] = type: in vivo, rat; conditions: rat, in vivo
Experimental: Rats are anaesthetized with sodium pentobarbital (50 mg/kg i.p.). Unilateral CCI-SN is performed under direct visual control using a Zeiss microscope (10-25×) essentially as described by Bennett and Xie (G. J. Bennett et al., Pain, 33 (1988) 87-107).
Mechanical sensitivity is determined with a graded series of von Frey filaments (Bioseb, Bordeaux, France; bending force: 0.07-60.0 g). The stimuli are applied within the SN territory (midplantar surface of the left hindpaw) three times at the nerve-injured side (ipsilateral, left) and then at the contralateral side for a total of 6 applications of each filament per rat, always beginning with the filament producing the lowest force. The von Frey filaments are applied at least 3 seconds after the rats returned to their initial resting state. For each session, the complete series of von Frey filaments is tested in increasing force order. The minimal force filament causing a hindpaw withdrawal response allows determination of the mechanical response threshold. The 60 g filament is the cut-off threshold.
(§1) For studying the effects of acute treatment with tapentadol in CCI-SN rats, tapentadol (1, 3 and 10 mg/kg i.p.) or its vehicle (0.9% NaCl i. p.) was injected acutely 14 days after surgery. Sham-operated rats were treated in parallel. Pressure threshold values to trigger nocifensive responses to von Frey filaments application onto the plantar surface of ipsilateral hindpaw were determined at various times after acute injection of tapentadol or saline. Cut-off was fixed at 60 g pressure.
(§2) For studying the effects of subchronic treatment with tapentadol in CCI-SN rats, starting on day 16 (Time=D) after surgery, they received i.p. injections of tapentadol (10 mg/kg, twice daily, at 10:00 AM and 6:00 PM) or saline (at the same day times as the drug) for four days. On the following day (day 20 after surgery), both tapentadol- and saline-pretreated CCI-SN rats were i.p. injected with Tapentadol (10 mg/kg; Time=0) and then subjected to von Frey filaments'test applied to ipsilateral hindpaw for determination of pressure threshold values at various times thereafter.
In a second part of this study (B), unilateral chronic constriction injury to the sciatic nerve was performed two weeks before acute treatment with reboxetine (10 mg/kg i.p.), tapentadol (10 mg/kg i.p.) or saline (0.5 ml i.p./rat). Pressure threshold values were then determined at various times using von Frey filaments test applied to ipsilateral hindpaw.
Morphine (1, 3 and 10 mg/kg s.c.) or its vehicle (0.9% NaCl) was injected acutely 14 days after CCI-SN surgery. Sham-operated rats were treated in parallel. Pressure threshold values to trigger nocifensive responses to von Frey filaments application onto the plantar surface of ipsilateral hindpaw were determined at various times after acute injection of morphine or saline.
14 days after CCI-SN surgery, rats were injected with reboxetine (10 mg/kg i.p.) or its vehicle (0.9% NaCl) followed, 15 min later, by morphine (1 mg/kg s.c.) or its vehicle (0.9% NaCl) and subjected to von Frey filament tests for the following 4 hours. Sham-operated rats were treated in parallel.
The results are depicted in FIG. 11.

CCI-ION rats [2] = type: in vivo, rat; conditions: rat, in vivo
Experimental: Rats are anaesthetized with sodium pentobarbital (50 mg/kg i.p.). Unilateral CCI-ION is performed under direct visual control using a Zeiss microscope (10-25×) essentially as described by Vos et al (Vos B P, Strassman A M, Maciewicz R J (1994), J. Neurosci. 14: 2708-2723). Briefly, the head is fixed in a Horsley-Clarke stereotaxic frame and a midline scalp incision is made, exposing skull and nasal bone. The edge of the orbit, formed by the maxillary, frontal, lacrimal, and zygomatic bones, is dissected free. The orbital contents are gently deflected to give access to the infraorbital nerve which is dissected free at its most rostral extent in the orbital cavity, just caudal to the infraorbital foramen. Only 5 mm of the nerve can be freed (Vos et al.), providing the space for placement of two chromic catgut (5-0) ligations tied loosely (with about 2 mm spacing) around it. […] Finally, scalp incision is closed using silk sutures (4-0). In sham-operated rats, the ION is exposed using the […] procedure, but is not ligated.
Mechanical sensitivity is determined with a graded series of eleven von Frey filaments (Bioseb, Bordeaux, France). The filaments produce a bending force of 0.07, 0.16, 0.40, 0.60, 1.00, 2.00, 4.00, 6.00, 8.00, 10.00 and 12.00 g, respectively. The stimuli are applied within the ION territory (vibrissae pad) three times at the nerve-injured side and then at the contralateral side for a total of 6 applications of each filament per rat, always beginning with the filament producing the lowest force. The von Frey filaments are applied at least 3 seconds after the rats returned to their initial resting state. For each session, the complete series of von Frey filaments is tested in increasing force order.
The latter responses represent the highest scores in the rank-ordered response scoring system initially described by Vos et al. The minimal force filament causing at least one among these responses (to at least 2 out of the 3 an each side) allows determination of the mechanical response threshold. The 12.00 g filament is the cut-off threshold (no tissue-injury occurs at this pressing force).
as §1, with “CCI-ION” for “CCI-SN”, “(1 or” for “(1, 3 and”, “12” for “60”
as §2, with “in CCI-ION” for “in CCI-SN”, “Frey filaments' test” for “Frey filaments'test”
14 days after CCI-ION surgery, rats were injected with reboxetine (10 mg/kg i.p.) or its vehicle (0.9% NaCl) followed, 15 min later, by morphine (3 mg/kg s.c.) or its vehicle (0.9% NaCl) and subjected to von Frey filament tests for the following 4 hours. Sham-operated rats were treated in parallel.

CCI-SN rats [3] = conditions: rat, in vivo; cited from earlier work
CCI-ION rats [4] = conditions: rat, in vivo; cited from earlier work
BDNF-induced allodynia [5] = test: Mechanical allodynia induced by intrathecal administration of BDNF in healthy rats (von Frey filaments test); type: in vivo, rat
Experimental: In a first part of this study, BDNF (0.3 ng in 25 μl of saline per rat) or saline (25 μl) was injected intrathecally in adult male rats slightly anesthetized with isoflurane (according to Mestre et al. (1994), J. Pharmacol. Toxicol. Meth., 32, 197-200), and animals were subjected to von Frey filaments test applied to hindpaws at various times thereafter.
In a second part of this study, tapentadol (3 or 10 mg/kg i.p.) or saline was administered to rats on the 7th day (Time=0 on abscissa) after intrathecal injection of BDNF (Time=C) as described above. Pressure threshold values were determined using von Frey filaments test applied to hindpaws.
In a first part of this study (A), reboxetine (10 mg/kg i.p.; mesylate, Ascent Scientific, Bristol, UK), tapentadol (10 mg/kg i.p.) or saline (0.5 ml i.p./rat) was injected on the 7th day after intrathecal administration of BDNF (0.3 ng in 25 μl of saline per rat). Pressure threshold values were determined at various times thereafter using von Frey filaments test applied to hindpaws.

BDNF-induced allodynia [6] = test: as above; type: in vivo, rat; conditions: BDNF 0.3 ng i.t.; up to 11 days; data not shown

## CN1CC[C@]23c4c5ccc(O)c4O[C@H]2[C@@H](O)C=C[C@H]3[C@H]1C5 [morphine]
CCI-SN rats [1]
  anti-allodynic effect (pressure threshold to trigger hindpaw withdrawal): strongly anti-allodynic
  increase in pressure threshold values: only discrete increases
  persistence of full reversal: at least one hour
  reversal of CCI-SN-induced mechanical allodynia: fully reversed; also recorded: not completely reversed
  time after injection at which full reversal was reached: 30 min
CCI-ION rats [2]
  anti-allodynic effect: only a discrete effect
  maximal increase in pressure threshold value as share of that determined in healthy intact rats: 20%
CCI-SN rats [3]
  effect on mechanical allodynia generated by CCI-SN: significantly attenuate
CCI-ION rats [4]
  effect on mechanical allodynia generated by CCI-ION: ineffective

## CCOc1ccccc1OC(c1ccccc1)C1CNCCO1 (centres unmarked) [reboxetine, reference compound]
CCI-SN rats [1]
  anti-allodynic effect compared to tapentadol (10 mg/kg i.p.): developed more slowly and was much less pronounced
  increase in pressure threshold values: only discrete increases
  reversal of CCI-SN-induced decrease in pressure threshold values: significant but only partial reversal
CCI-ION rats [2]
  anti-allodynic effect: completely inactive
BDNF-induced allodynia [5]; rat, in vivo
  maximal increase in pressure threshold values relative to that caused by 10 mg/kg i.p. of tapentadol: only one third
  reversal of mechanical allodynia caused by intrathecal BDNF: significant but partial reversal
  time at which the maximal increase in pressure threshold was reached: 45 min

## NC1=N[C@H](O)[C@H]2[C@H]3O[C@]4(O)O[C@@H]([C@@H](O)[C@@]2(N1)[C@@H]4O)[C@]3(O)CO [tetrodotoxin]
CCI-SN rats [3]
  effect on mechanical allodynia generated by CCI-SN: significantly attenuate
CCI-ION rats [4]
  effect on mechanical allodynia generated by CCI-ION: ineffective

B1: BDNF: neurotrophic factor injected intrathecally (0.3 ng per rat) to induce mechanical allodynia (protein, UniProt P23560 19-247, looked up)
Neurotrophic factor BDNF …: APMKEANIRGQGGLAYPGVRTHGTLESVNGPKAGSRGLTSLADTFEHVIEELLDEDQKVRPNEENNKDADLYTSRVMLSSQVPLEPPLLFLLEEYKNYLDAANMSMRVRRHSDPARRGELSVCDSISEWVTAADKKTAVDMSGGTVTVLEKVPVSKGQLKQYFYETKCNPMGYTKEGCRGIDKRHWNSQCRTTQSYVRALTMDSKKRIGWRFIRIDTSCVCTLTIKRGR
BDNF-induced allodynia [5]; BDNF 0.3 ng i.t.
  hindpaw pressure threshold values from day 4 to day 8 after injection: as low as those previously determined two weeks after surgery in CCI-SN rats
  hindpaw pressure threshold values on the 11th day relative to untreated healthy rats: only half
BDNF-induced allodynia [5]; BDNF 0.3 ng i.t., single injection, healthy rats
  pressure threshold value to trigger hindpaw withdrawal after intrathecal injection: progressive and long lasting decrease
BDNF-induced allodynia [6]
  pressure threshold value within the vibrissal pad: ~12 g
  pressure threshold values, von Frey filaments applied within the vibrissal pad: not significantly modified
